Experimental data from patent US10072026B2, “Crystalline form of 3-((1R,3s,5S)-3-((7-((5-methyl-1H-pyrazol-3-yl)amino)-1,6-naphthyridin-5-yl)amino)-8-azabicyclo[3.2.1]octan-8-yl)propanenitrile” (priority 2015, dated 2018).
Like-named read-outs stand apart in the source and are kept apart here.

Columns and labels:
[1] = biological target: JAK2 (Homo sapiens (Human), UniProt O60674); assay: LanthaScreen JAK biochemical assay (JAK2)
[2] = biological target: JAK1 (Homo sapiens (Human), UniProt P23458); assay: LanthaScreen JAK biochemical assay (JAK1)
Chain of JAK1 (P23458 whole entry): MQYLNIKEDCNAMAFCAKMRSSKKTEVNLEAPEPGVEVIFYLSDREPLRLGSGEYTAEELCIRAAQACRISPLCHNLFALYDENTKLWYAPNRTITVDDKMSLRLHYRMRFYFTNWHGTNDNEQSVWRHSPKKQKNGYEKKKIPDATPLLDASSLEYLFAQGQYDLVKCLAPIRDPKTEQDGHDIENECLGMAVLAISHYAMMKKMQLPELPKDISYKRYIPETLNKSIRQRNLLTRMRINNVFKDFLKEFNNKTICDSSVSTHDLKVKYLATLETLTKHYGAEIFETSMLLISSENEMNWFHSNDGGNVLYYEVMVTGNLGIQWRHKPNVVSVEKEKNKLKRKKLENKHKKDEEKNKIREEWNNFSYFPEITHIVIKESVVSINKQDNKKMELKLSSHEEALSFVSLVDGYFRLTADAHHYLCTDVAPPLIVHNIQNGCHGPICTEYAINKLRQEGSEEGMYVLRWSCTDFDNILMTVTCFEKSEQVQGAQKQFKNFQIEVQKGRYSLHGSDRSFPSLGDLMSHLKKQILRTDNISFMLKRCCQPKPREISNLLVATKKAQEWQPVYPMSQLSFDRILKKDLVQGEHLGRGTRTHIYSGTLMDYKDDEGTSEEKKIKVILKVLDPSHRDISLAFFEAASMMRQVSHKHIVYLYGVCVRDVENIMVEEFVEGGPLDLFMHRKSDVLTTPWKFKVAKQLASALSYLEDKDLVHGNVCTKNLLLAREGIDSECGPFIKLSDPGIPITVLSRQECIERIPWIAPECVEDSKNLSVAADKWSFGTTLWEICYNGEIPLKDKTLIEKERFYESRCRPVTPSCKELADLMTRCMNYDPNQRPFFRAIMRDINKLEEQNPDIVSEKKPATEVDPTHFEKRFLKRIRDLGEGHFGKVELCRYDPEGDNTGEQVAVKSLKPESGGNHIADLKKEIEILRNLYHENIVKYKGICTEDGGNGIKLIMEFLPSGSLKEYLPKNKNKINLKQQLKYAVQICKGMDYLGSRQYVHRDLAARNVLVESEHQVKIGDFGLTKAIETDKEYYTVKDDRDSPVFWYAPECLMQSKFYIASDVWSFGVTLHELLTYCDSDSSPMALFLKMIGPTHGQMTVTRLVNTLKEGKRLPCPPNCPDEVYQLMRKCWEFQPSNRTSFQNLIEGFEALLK

[3] = biological target: JAK3 (Homo sapiens (Human), UniProt P52333); assay: LanthaScreen JAK biochemical assay (JAK3)
[4] = tested on: IL-4 induced STAT6 phosphorylation in THP-1 human monocytic cells; assay: Cellular JAK potency assay, THP-1
[5] = tested on: IL-13 induced STAT6 phosphorylation in BEAS-2B human lung epithelial cells; assay: AlphaScreen cellular JAK potency assay, BEAS-2B
[6] = biological target: Tyk2 (Homo sapiens (Human), UniProt P29597); assay: LanthaScreen JAK biochemical assay (Tyk2)
Chain of Tyk2 (P29597 whole entry): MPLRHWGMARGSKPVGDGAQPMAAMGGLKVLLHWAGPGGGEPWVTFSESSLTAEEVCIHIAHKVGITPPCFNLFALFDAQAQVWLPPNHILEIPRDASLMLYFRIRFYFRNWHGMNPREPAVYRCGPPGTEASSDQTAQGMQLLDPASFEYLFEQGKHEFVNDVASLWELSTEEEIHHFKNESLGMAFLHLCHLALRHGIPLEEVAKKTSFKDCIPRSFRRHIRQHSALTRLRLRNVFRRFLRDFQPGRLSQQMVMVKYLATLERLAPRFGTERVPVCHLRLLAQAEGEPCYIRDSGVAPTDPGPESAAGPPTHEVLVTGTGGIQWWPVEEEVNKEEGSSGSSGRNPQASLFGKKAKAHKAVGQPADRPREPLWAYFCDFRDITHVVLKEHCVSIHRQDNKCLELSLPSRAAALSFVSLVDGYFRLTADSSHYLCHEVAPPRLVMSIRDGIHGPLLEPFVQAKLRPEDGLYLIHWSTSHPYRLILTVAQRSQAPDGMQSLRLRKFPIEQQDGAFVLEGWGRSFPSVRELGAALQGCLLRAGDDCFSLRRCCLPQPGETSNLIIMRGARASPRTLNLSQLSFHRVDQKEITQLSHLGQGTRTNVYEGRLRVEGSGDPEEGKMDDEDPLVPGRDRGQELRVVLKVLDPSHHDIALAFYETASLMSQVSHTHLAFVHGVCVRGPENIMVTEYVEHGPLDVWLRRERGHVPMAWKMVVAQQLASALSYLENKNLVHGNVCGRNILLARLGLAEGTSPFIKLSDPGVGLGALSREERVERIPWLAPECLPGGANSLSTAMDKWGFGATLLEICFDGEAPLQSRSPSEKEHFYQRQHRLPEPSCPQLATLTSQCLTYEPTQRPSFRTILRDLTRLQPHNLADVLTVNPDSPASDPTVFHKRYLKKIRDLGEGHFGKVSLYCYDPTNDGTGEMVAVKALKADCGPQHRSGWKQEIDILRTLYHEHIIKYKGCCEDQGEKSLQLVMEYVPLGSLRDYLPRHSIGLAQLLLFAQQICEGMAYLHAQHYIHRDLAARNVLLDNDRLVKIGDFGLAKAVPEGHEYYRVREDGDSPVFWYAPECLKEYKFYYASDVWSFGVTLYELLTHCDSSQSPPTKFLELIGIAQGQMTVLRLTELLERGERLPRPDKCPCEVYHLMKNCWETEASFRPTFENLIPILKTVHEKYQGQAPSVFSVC

[7] = IL-4 induced STAT6 phosphorylation, THP-1 cells
[8] = THP-1 cells, IL-4 induced STAT6 phosphorylation
[9] = IL-13 induced STAT6 phosphorylation, BEAS-2B cells
[10] = BEAS-2B cells, IL-13 induced STAT6 phosphorylation
[11] = Homo sapiens, BEAS-2B, read-out: BEAS2B pIC50 (converted)
[12] = Homo sapiens, THP-1, read-out: THP-1 IL4 pIC50 (converted)
[13] = read-out: JAK 2 (pKi) (converted)
[14] = read-out: JAK 1 (pKi) (converted)
[15] = read-out: Tyk 2 (pKi) (converted)

Chain of JAK2 (O60674 whole entry): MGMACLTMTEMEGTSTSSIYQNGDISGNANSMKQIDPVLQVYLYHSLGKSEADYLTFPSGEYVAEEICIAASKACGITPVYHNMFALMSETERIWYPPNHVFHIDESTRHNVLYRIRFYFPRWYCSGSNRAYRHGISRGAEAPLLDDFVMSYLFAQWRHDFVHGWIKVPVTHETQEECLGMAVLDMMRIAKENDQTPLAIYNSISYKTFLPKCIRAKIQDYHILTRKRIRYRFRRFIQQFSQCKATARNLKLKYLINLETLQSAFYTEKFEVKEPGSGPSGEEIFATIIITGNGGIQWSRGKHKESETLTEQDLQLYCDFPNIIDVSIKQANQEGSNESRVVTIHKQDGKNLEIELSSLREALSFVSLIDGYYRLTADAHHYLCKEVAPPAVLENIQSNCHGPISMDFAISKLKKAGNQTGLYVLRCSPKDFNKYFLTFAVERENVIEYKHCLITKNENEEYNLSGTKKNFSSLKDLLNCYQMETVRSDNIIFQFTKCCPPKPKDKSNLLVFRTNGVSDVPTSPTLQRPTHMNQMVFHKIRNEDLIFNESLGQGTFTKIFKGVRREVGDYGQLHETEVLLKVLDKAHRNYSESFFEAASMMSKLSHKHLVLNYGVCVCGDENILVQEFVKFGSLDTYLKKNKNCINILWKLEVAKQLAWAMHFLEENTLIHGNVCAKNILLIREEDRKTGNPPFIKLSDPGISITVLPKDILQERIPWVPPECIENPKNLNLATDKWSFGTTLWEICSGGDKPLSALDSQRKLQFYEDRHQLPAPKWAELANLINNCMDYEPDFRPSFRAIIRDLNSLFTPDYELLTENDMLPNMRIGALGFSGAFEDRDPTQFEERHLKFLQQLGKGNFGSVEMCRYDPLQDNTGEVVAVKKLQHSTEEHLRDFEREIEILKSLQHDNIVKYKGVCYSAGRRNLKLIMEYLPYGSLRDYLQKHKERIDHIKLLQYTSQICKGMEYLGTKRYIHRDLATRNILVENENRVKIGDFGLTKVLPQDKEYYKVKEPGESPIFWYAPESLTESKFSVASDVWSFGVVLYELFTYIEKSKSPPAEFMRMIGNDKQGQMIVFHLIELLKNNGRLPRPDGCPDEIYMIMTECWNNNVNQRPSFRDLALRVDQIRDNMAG

| Compound | JAK 2 (pKi) [1] | JAK 1 (pKi) [2] | JAK 3 (pKi) [3] | THP-1 IL4 pIC50 [4, 7] | THP-1 IL4 pIC50 [4, 8] | further results |
| --- | --- | --- | --- | --- | --- | --- |
| CCS(=O)(=O)N1[C@@H]2CCC[C@H]1C[C@H](Nc1nc(Nc3cc(C)[nH]n3)cc3nc(CN4CCOCC4)ccc13)C2 [Example 5-23] | A (A represents a pKi value≥10 (Ki≤0.1 nM)) | A (A represents a pKi value≥10 (Ki≤0.1 nM)) | B (B represents a pKi value between 9 and 10 (Ki between 1 nM and 0.1 nM)) | A (A represents a pEC50 value≥7.5 (EC50≤32 nM)) | – | – |
| Cc1cc(Nc2cc3nc(CN4CCN(C)CC4)ccc3c(N[C@@H]3C[C@H]4CC[C@@H](C3)N4CC(C)C)n2)n[nH]1 [Example 5-38] | – | – | C (C represents a pKi value between 7 and 9 (Ki between 100 nM and 1 nM)) | – | – | – |
| Cc1cc(Nc2nc(N[C@@H]3C[C@H]4CCC[C@@H](C3)N4CCC#N)c3cccnc3c2F)n[nH]1 [Example 8-9] | B (B represents a pKi value between 9 and 10 (Ki between 1 nM and 0.1 nM)) | B (B represents a pKi value between 9 and 10 (Ki between 1 nM and 0.1 nM)) | C (C represents a pKi value between 7 and 9 (Ki between 100 nM and 1 nM)) | – | B (B represents a pEC50 value between 6.7 and 7.5 (EC50 between 200 nM and 32 nM)) | – |
| COc1cnc2cc(Nc3cc(C)[nH]n3)nc(N[C@@H]3C[C@H]4CC[C@@H](C3)N4CCF)c2c1 [Example 6-13] | – | B (B represents a pKi value between 9 and 10 (Ki between 1 nM and 0.1 nM)) | C (C represents a pKi value between 7 and 9 (Ki between 100 nM and 1 nM)) | – | B (B represents a pEC50 value between 6.7 and 7.5 (EC50 between 200 nM and 32 nM)) | – |
| Cc1cc(Nc2cc3ncccc3c(N[C@@H]3C[C@H]4CCC[C@@H](C3)N4CC(=O)N[C@H]3CCOC3=O)n2)n[nH]1 [Example 1-42] | A (A represents a pKi value≥10 (Ki≤0.1 nM)) | – | B (B represents a pKi value between 9 and 10 (Ki between 1 nM and 0.1 nM)) | C (C represents a pEC50 value<6.7 (EC50>200 nM)) | – | – |
| Cc1cc(Nc2cc3ncccc3c(N[C@@H]3C[C@H]4CCC[C@@H](C3)N4Cc3ccncc3C#N)n2)n[nH]1 [Example 1-56] | B (B represents a pKi value between 9 and 10 (Ki between 1 nM and 0.1 nM)) | B (B represents a pKi value between 9 and 10 (Ki between 1 nM and 0.1 nM)) | – | A (A represents a pEC50 value≥7.5 (EC50≤32 nM)) | – | BEAS2B pIC50 [5, 9]: A (A represents a pEC50 value≥7.5 (EC50≤32 nM)); Tyk 2 (pKi) [6]: B (B represents a pKi value between 9 and 10 (Ki between 1 nM and 0.1 nM)) |
| Cc1cc(Nc2cc3ncccc3c(N[C@@H]3C[C@H]4CC[C@@H](C3)N4CC(N)=O)n2)n[nH]1 [Example 1-6] | B (B represents a pKi value between 9 and 10 (Ki between 1 nM and 0.1 nM)) | B (B represents a pKi value between 9 and 10 (Ki between 1 nM and 0.1 nM)) | C (C represents a pKi value between 7 and 9 (Ki between 100 nM and 1 nM)) | C (C represents a pEC50 value<6.7 (EC50>200 nM)) | – | – |
| CNC(=O)CN1[C@@H]2CC[C@H]1C[C@H](Nc1nc(Nc3cc(C)[nH]n3)cc3ncc(C(=O)OC)cc13)C2 [Example 6-42] | B (B represents a pKi value between 9 and 10 (Ki between 1 nM and 0.1 nM)) | B (B represents a pKi value between 9 and 10 (Ki between 1 nM and 0.1 nM)) | C (C represents a pKi value between 7 and 9 (Ki between 100 nM and 1 nM)) | – | C (C represents a pEC50 value<6.7 (EC50>200 nM)) | – |
| Cc1cnc2c(F)c(Nc3cc(C)[nH]n3)nc(N[C@@H]3C[C@H]4CCC[C@@H](C3)N4S(=O)(=O)N3CC(C#N)C3)c2c1 [Example 8-23] | A (A represents a pKi value≥10 (Ki≤0.1 nM)) | B (B represents a pKi value between 9 and 10 (Ki between 1 nM and 0.1 nM)) | – | – | B (B represents a pEC50 value between 6.7 and 7.5 (EC50 between 200 nM and 32 nM)) | BEAS2B pIC50 [5, 10]: B (B represents a pEC50 value between 6.7 and 7.5 (EC50 between 200 nM and 32 nM)); Tyk 2 (pKi) [6]: B (B represents a pKi value between 9 and 10 (Ki between 1 nM and 0.1 nM)) |
| CCC(CC#N)N1[C@@H]2CC[C@H]1C[C@H](Nc1nc(Nc3cc(C)[nH]n3)cc3ncccc13)C2 (stereo partly shown) [Example 1-22] | B (B represents a pKi value between 9 and 10 (Ki between 1 nM and 0.1 nM)) | B (B represents a pKi value between 9 and 10 (Ki between 1 nM and 0.1 nM)) | – | B (B represents a pEC50 value between 6.7 and 7.5 (EC50 between 200 nM and 32 nM)) | – | BEAS2B pIC50 [5, 9]: A (A represents a pEC50 value≥7.5 (EC50≤32 nM)); Tyk 2 (pKi) [6]: B (B represents a pKi value between 9 and 10 (Ki between 1 nM and 0.1 nM)) |
| Cc1cc(Nc2cc3ncccc3c(N[C@@H]3C[C@H]4CC[C@@H](C3)N4CC(F)(F)F)n2)n[nH]1 [Example 1-14] | – | – | – | – | – | Ki [1]: 0.1 to 1 nM; Ki [2]: 0.1 to 1 nM; IC50 [5, 11]: < 31.6 nM; Ki [6]: 0.1 to 1 nM; IC50 [4, 12]: < 31.6 nM |
| Cc1cc(Nc2cc3ncccc3c(N[C@@H]3C[C@H]4CCC[C@@H](C3)N4S(=O)(=O)C3CNC3)n2)n[nH]1 [Example 4-21] | B (B represents a pKi value between 9 and 10 (Ki between 1 nM and 0.1 nM)) | – | C (C represents a pKi value between 7 and 9 (Ki between 100 nM and 1 nM)) | C (C represents a pEC50 value<6.7 (EC50>200 nM)) | – | – |
| COc1ccc2c(N[C@@H]3C[C@H]4CC[C@@H](C3)N4CCC#N)nc(Nc3cc(C)[nH]n3)cc2n1 [Example 5-8] | B (B represents a pKi value between 9 and 10 (Ki between 1 nM and 0.1 nM)) | B (B represents a pKi value between 9 and 10 (Ki between 1 nM and 0.1 nM)) | – | A (A represents a pEC50 value≥7.5 (EC50≤32 nM)) | – | BEAS2B pIC50 [5, 9]: A (A represents a pEC50 value≥7.5 (EC50≤32 nM)); Tyk 2 (pKi) [6]: B (B represents a pKi value between 9 and 10 (Ki between 1 nM and 0.1 nM)) |
| Cc1cc(Nc2cc3ncccc3c(N[C@@H]3C[C@H]4CC[C@@H](C3)N4CC(=O)N(C)C)n2)n[nH]1 [Example 1-8] | – | B (B represents a pKi value between 9 and 10 (Ki between 1 nM and 0.1 nM)) | C (C represents a pKi value between 7 and 9 (Ki between 100 nM and 1 nM)) | C (C represents a pEC50 value<6.7 (EC50>200 nM)) | – | – |
| COc1cnc2cc(Nc3cc(C)[nH]n3)nc(N[C@@H]3C[C@H]4CCC[C@@H](C3)N4CCC#N)c2c1 [Example 6-31] | B (B represents a pKi value between 9 and 10 (Ki between 1 nM and 0.1 nM)) | B (B represents a pKi value between 9 and 10 (Ki between 1 nM and 0.1 nM)) | – | – | A (A represents a pEC50 value≥7.5 (EC50≤32 nM)) | BEAS2B pIC50 [5, 10]: A (A represents a pEC50 value≥7.5 (EC50≤32 nM)); Tyk 2 (pKi) [6]: B (B represents a pKi value between 9 and 10 (Ki between 1 nM and 0.1 nM)) |
| COc1ccc2c(N[C@@H]3C[C@H]4CC[C@@H](C3)N4CC(F)(F)F)nc(Nc3cc(C)[nH]n3)cc2n1 [Example 5-1] | – | – | – | – | – | Ki [1, 13]: 0.1 to 1 nM; Ki [2, 14]: 0.1 to 1 nM; IC50 [5, 11]: < 31.6 nM; Ki [6, 15]: 0.1 to 1 nM; IC50 [4, 12]: < 31.6 nM |
| C=CCOC(=O)N1[C@@H]2CC[C@H]1C[C@H](Nc1nc(Nc3cc(C)[nH]n3)cc3ncc(OC)cc13)C2 [Example 6-19] | – | B (B represents a pKi value between 9 and 10 (Ki between 1 nM and 0.1 nM)) | C (C represents a pKi value between 7 and 9 (Ki between 100 nM and 1 nM)) | – | B (B represents a pEC50 value between 6.7 and 7.5 (EC50 between 200 nM and 32 nM)) | – |
| Cc1cc(Nc2nc(N[C@@H]3C[C@H]4CC[C@@H](C3)N4C(=O)CN(C)C)c3cccnc3c2F)n[nH]1 [Example 8-7] | – | – | C (C represents a pKi value between 7 and 9 (Ki between 100 nM and 1 nM)) | – | C (C represents a pEC50 value<6.7 (EC50>200 nM)) | – |
| Cc1cc(Nc2cc3nc(CN4CCN(C)CC4)ccc3c(N[C@@H]3C[C@H]4CC[C@@H](C3)N4CCC#N)n2)n[nH]1 [Example 5-37] | – | – | B (B represents a pKi value between 9 and 10 (Ki between 1 nM and 0.1 nM)) | B (B represents a pEC50 value between 6.7 and 7.5 (EC50 between 200 nM and 32 nM)) | – | – |
| Cc1cc(Nc2cc3nc(CN4CCOCC4)ccc3c(N[C@@H]3C[C@H]4CC[C@@H](C3)N4S(=O)(=O)c3cncc(F)c3)n2)n[nH]1 [Example 5-20] | – | – | – | – | – | Ki [1, 13]: 0.1 to 1 nM; Ki [2, 14]: 0.1 to 1 nM; IC50 [5, 11]: 31.6 to 200 nM; Ki [6, 15]: 0.1 to 1 nM; IC50 [4, 12]: < 31.6 nM |
| Cc1cc(Nc2cc3ncccc3c(N[C@@H]3C[C@H]4CCC[C@@H](C3)N4CC(=O)N[C@@H]3CCOC3=O)n2)n[nH]1 [Example 1-41] | A (A represents a pKi value≥10 (Ki≤0.1 nM)) | – | B (B represents a pKi value between 9 and 10 (Ki between 1 nM and 0.1 nM)) | C (C represents a pEC50 value<6.7 (EC50>200 nM)) | – | – |
| Cc1cc(Nc2cc3ncccc3c(N[C@@H]3C[C@H]4CC[C@@H](C3)N4C(=O)CN(C)C)n2)n[nH]1 [Example 2-5] | – | B (B represents a pKi value between 9 and 10 (Ki between 1 nM and 0.1 nM)) | C (C represents a pKi value between 7 and 9 (Ki between 100 nM and 1 nM)) | C (C represents a pEC50 value<6.7 (EC50>200 nM)) | – | – |
| COc1ccc2c(N[C@@H]3C[C@H]4CC[C@@H](C3)N4CCF)nc(Nc3cc(C)[nH]n3)cc2n1 [Example 5-3] | – | B (B represents a pKi value between 9 and 10 (Ki between 1 nM and 0.1 nM)) | C (C represents a pKi value between 7 and 9 (Ki between 100 nM and 1 nM)) | B (B represents a pEC50 value between 6.7 and 7.5 (EC50 between 200 nM and 32 nM)) | – | – |
